Reference: patent US20260242324A1, “FATTY ACID MIMETICS AS MODULATORS OF GPR40 AND/OR GPR120” (Trustees of Dartmouth College, priority 2023, published 2026)
pEC50: −log10 of the molar value. Read-outs that look alike come from different tables or passages of the source.

Key:
GPR40 = target: T1, GPR40 (Homo sapiens, UniProt O14842); experiment: β-arrestin assay (PathHunter) for GPR40 agonism; format: cell-based; conditions: for activity at GPR40 in heat map of % maximal efficacy: single dose 15 μM, FIG. 9A, compared to oleic acid at 15 μM; for GPR40 agonism / selectivity for GPR40 over GPR120 / pEC50: dose-response; for GPR40 agonism / selectivity for GPR40 over GPR120: FIG. 9B; for potency at GPR40 relative to oleic acid: multiple of oleic acid potency; for pEC50: PathHunter β-arrestin
T1 construct: beta-galactosidase enzyme fragment for EFC (ProLink-type tag); expressed in transfected cells
T1 sequence (O14842 whole entry, the tested form may be a part): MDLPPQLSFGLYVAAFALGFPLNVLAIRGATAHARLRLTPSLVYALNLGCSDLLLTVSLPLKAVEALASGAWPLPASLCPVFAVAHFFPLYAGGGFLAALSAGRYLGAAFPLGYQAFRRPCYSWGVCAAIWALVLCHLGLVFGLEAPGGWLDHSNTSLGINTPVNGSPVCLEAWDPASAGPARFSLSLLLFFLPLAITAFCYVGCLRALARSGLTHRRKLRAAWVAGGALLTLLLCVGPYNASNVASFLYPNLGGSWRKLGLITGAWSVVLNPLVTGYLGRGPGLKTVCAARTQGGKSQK
Procedure: (§1) In this example, compounds from Example 1 were assessed as functional ligands (agonists) to two oleic acid receptors (GPR40 and GPR120). […]

GPR120 [1] = target: T2, GPR120 (Homo sapiens, UniProt Q5NUL3); experiment: β-arrestin assay (PathHunter) for GPR120 agonism; format: cell-based; design: beta-galactosidase enzyme fragment for EFC (ProLink-type tag); expressed in transfected cells; conditions: for pEC50: PathHunter β-arrestin, dose-response; for agonist efficacy at GPR120: relative to oleic acid and GW9508; for activity at GPR120 in heat map of % maximal efficacy: single dose 15 μM, FIG. 9A, compared to oleic acid at 15 μM
T2 sequence (Q5NUL3 1-361): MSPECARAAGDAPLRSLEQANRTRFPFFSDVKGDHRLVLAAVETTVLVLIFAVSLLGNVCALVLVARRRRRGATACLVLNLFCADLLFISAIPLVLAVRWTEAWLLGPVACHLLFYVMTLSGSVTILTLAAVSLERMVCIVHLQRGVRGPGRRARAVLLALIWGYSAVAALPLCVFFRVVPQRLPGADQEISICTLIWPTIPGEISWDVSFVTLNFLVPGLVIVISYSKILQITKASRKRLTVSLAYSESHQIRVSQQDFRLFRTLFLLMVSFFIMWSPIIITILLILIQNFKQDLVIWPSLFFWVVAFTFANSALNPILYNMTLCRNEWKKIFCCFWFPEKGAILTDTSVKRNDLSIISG
Procedure: as §1

CHO-mGPR40 cells = target: T3, CHO-mGPR40 cells (Mus musculus, UniProt Q76JU9); conditions: reported; read-out: EC50, stimulatory activity on CHO-mGPR40 cells; cited from earlier work
T3 construct: host or cells: CHO cells transfected with mGPR40
T3 sequence (Q76JU9 whole entry): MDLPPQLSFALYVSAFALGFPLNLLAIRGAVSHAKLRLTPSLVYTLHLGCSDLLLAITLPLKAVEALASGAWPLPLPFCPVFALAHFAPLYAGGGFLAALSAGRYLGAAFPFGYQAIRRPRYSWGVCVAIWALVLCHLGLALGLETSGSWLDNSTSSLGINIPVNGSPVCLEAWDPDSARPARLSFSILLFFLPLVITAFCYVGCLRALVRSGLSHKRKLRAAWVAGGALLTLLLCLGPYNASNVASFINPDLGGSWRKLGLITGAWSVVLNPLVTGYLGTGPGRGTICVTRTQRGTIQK

MIN6 cells = conditions: reported, concentrations as low as; cited from earlier work
GPR120 [2] = target: T2, GPR120; conditions: read-out: EC50 as agonist of GPR120; reported; cited from earlier work

| Structure (SMILES) | activity at GPR40 in heat map of % maximal efficacy (GPR40) | GPR40 agonism (GPR40) | selectivity for GPR40 over GPR120 (GPR40) | potency at GPR40 relative to oleic acid (GPR40) | activity against GPR120 (GPR120 [1]) | pEC50 (GPR120 [1]) | agonist efficacy at GPR120 (GPR120 [1]) | activity at GPR120 in heat map of % maximal efficacy (GPR120 [1]) | also measured |
| --- | --- | --- | --- | --- | --- | --- | --- | --- | --- |
| CCCCCCCCCC/C=C(/C)C/C(C)=C/[C@H](C)CC(=O)O [Compound 1-A] | enriched for activity at GPR40 | – | – | – | – | – | – | – | – |
| CCCCCCCCC[C@@H](C)/C=C(/C)C/C(C)=C/[C@H](C)CC(=O)O [Compound 1-C] | enriched for activity at GPR40 | exceptionally selective and potent agonists of GPR40 | substantial selectivity over GPR120 | – | – | – | – | – | – |
| CCCCCCCCC[C@H](C)/C=C(/C)C/C(C)=C/[C@H](C)CC(=O)O [Compound 1-E] | enriched for activity at GPR40 | exceptionally selective and potent agonists of GPR40 | substantial selectivity over GPR120 | twelve times greater than oleic acid | – | – | – | – | – |
| CCCCCCCCC[C@H](C)/C=C(/C)C/C(C)=C/[C@@H](C)CC(=O)O [Compound 1-F] | – | exceptionally selective and potent agonists of GPR40 | substantial selectivity over GPR120 | – | – | – | – | – | – |
| CCCCCCC[C@@H](C)/C=C(/C)C/C(C)=C/[C@H](C)CCCC(=O)O [Compound 2-C] | – | effective agonists of GPR40 | – | approximately 6 fold | agonist activity against GPR120 | 5.15 to 6.00 | agonist efficacy at a fraction of what is observed with oleic acid and GW9508 | enriched for activity at GPR120 | – |
| CCCCCCC[C@@H](C)/C=C(/C)C/C(C)=C/[C@@H](C)CCCC(=O)O [Compound 2-D] | – | effective agonists of GPR40 | – | approximately 6 fold | – | 5.15 to 6.00 | agonist efficacy at a fraction of what is observed with oleic acid and GW9508 | enriched for activity at GPR120 | – |
| CCCCCCC[C@H](C)/C=C(/C)C/C(C)=C/[C@H](C)CCCC(=O)O [Compound 2-E] | – | effective agonists of GPR40 | – | approximately 6 fold | – | 5.15 to 6.00 | agonist efficacy at a fraction of what is observed with oleic acid and GW9508 | enriched for activity at GPR120 | selectivity for GPR120 (GPR120 [1]; GPR120 over GPR40): 5 fold; enhanced potency (GPR120 [1]; versus oleic acid or GW9508): 7-15 fold |
| CCC[C@@H](C)/C=C(/C)C/C(C)=C/[C@H](C)CCCCCCCC(=O)O [Compound 4-C] | – | – | – | – | inactive against GPR120 | – | – | – | – |
| O=C(O)CCc1ccc(NCc2cccc(Oc3ccccc3)c2)cc1 [GW9508, reference compound] | – | – | – | – | – | – | – | – | pEC50 (GPR40): 6.00 |
| CCCCCCCC/C=C\CCCCCCCC(=O)O [oleic acid, reference compound] | – | – | – | – | agonist activity against GPR120 | 4.82 | – | – | pEC50 (GPR40): 4.43; right shift of reporter assay results (GPR40; versus reported values, receptor not specified): ~ 20 fold; pEC50 (CHO-mGPR40 cells): 5.70; concentration inducing insulin secretion in MIN6 cells (MIN6 cells): ≥ 1 µM; pEC50 (GPR120 [2]): 4.92 |
